Measurements taken from patent US6524584B2, “Saponin compositions and uses thereof” (priority 1996, dated 2003).

Tests used:
ovalbumin [1] = assay: Serum anti-ovalbumin antibody response by enzyme immunoassay after immunization; assay type: in vivo, C57BL/6 mice; details: saponin dose 0.625 μg, alone
Procedure: (§1) All experiments were carried out in C57BL/6 mice (female, 8-12 weeks of age). The synergistic adjuvant-effect of the QS-21/QS-7 mixtures was assessed by two parameters: (1) the ability of these mixtures to improve antibody titers to a subunit antigen, ovalbumin, in mice; and (2) the ability of these mixtures to improve an ovalbumin-specific cytotoxic T lymphocyte (killer cell) response in mice.
The experimental techniques were the following. The mice were immunized subcutaneously at week 1, 3, and 5 with 0.2 ml of the indicated formulations in phosphate-buffered saline. Mice were immunized in groups of five. Sera and spleens were harvested at weeks 7 to 9. Sera was assayed for anti-ovalbumin antibody response by enzyme immunoassay. Briefly, a 96 well Immulon plate was coated with 10 μg/ml ovalbumin in phosphate-buffered saline (PBS) overnight at 4° C. These plates were blocked with 10% normal goat serum in PBS (diluent) for one hour at room temperature. Serial 1:10 dilutions of serum were made in diluent and were incubated on the plates for one hour at room temperature or overnight at 4° C. An enzyme conjugate of anti-mouse IgG (or anti-mouse IgG subclass) was diluted in diluent and incubated on the plate. A calorimetric enzyme substrate, tetramethylbenzidine, was used to assay for binding of anti-ovalbumin antibody. […]

E.G7-OVA target cells = assay: Cytotoxic T-lymphocyte (CTL) assay, 51Cr release, splenic effector cells from immunized mice; assay type: in vivo, C57BL/6 mice; details: s.c. with ovalbumin, weeks 1, 3, 5
Procedure: as §1
The experimental techniques were the following. The mice were immunized subcutaneously at week 1, 3, and 5 with 0.2 ml of the indicated formulations in phosphate-buffered saline. Mice were immunized in groups of five. Sera and spleens were harvested at weeks 7 to 9. Sera was assayed for anti-ovalbumin antibody response by enzyme immunoassay. Briefly, a 96 well Immulon plate was coated with 10 μg/ml ovalbumin in phosphate-buffered saline (PBS) overnight at 4° C. These plates were blocked with 10% normal goat serum in PBS (diluent) for one hour at room temperature. Serial 1:10 dilutions of serum were made in diluent and were incubated on the plates for one hour at room temperature or overnight at 4° C. An enzyme conjugate of anti-mouse IgG (or anti-mouse IgG subclass) was diluted in diluent and incubated on the plate. A calorimetric enzyme substrate, tetramethylbenzidine, was used to assay for binding of anti-ovalbumin antibody. Spleens from immunized mice were used to assay for the cytotoxic T lymphocyte (CTL) response. The effector cells for the (CTL) assay were splenic mononuclear cells from the harvested spleens. The antigen-positive target cells for the assay were E.G7-OVA cells, which are an MHC class II antigen-negative EL4 mouse cell line, transfected with the ovalbumin gene. […] EL4 cells were used as an ovalbumin-negative target cell line. Prior to assay, splenic mononuclear cells were stimulated with antigen to induce maturation of precursor CTL in the effector cell population. The antigens used for stimulation were mitomycin C treated E.G7-OVA cells (incubated with spleen cells at a ratio of 20:1 spleen cells: E.G7-OVA cells) or denatured ovalbumin (25 μg/ml). […]

ovalbumin [2] = details: at 2.5 μg or lower, mice; cited from earlier work
[3] = test system: bovine serum albumin and cytochrome b5; details: mice; cited from earlier work
cytochrome b5 = details: saponin doses of 20 μg; cited from earlier work
mice = details: mouse, in vivo; cited from earlier work
ovalbumin [4] = details: doses below 2.5 μg, mice; cited from earlier work

Substance | antibody titer compared with no adjuvant (ovalbumin [1]) | stimulating a CTL response (E.G7-OVA target cells; saponin dose 0.625 μg) | stimulating a CTL response (E.G7-OVA target cells; saponin dose 1.25 μg) | stimulating a CTL response (E.G7-OVA target cells; saponin dose 20 μg) | CTL response to ovalbumin (ovalbumin [2]) | antibody responses to bovine serum albumin and cytochrome b5 [3] | IgG2a response to cytochrome b5 (cytochrome b5) | toxicity in mice (mice) | adjuvant for raising an antibody response to ovalbumin (ovalbumin [4])
QS-21 | neither 10 μg QS-7 or 0.625 μg QS-21, individually, yields a titer that is higher than no adjuvant | ineffective | ineffective | highly effective | minimal | stimulate potent antibody responses | stimulate IgG2a response | least toxic | ineffective
QS-18 |  |  |  |  |  | stimulate potent antibody responses | stimulate IgG2a response |  | 
QS-17 |  |  |  |  |  | stimulate potent antibody responses | stimulate IgG2a response |  | 
